Experimental data reported in ChEMBL document CHEMBL4507315 (2021).

How the values were obtained:
[1] = biological target: Activin receptor type-2B (Homo sapiens) (UniProt Q13705); conditions: Compound concentration 100.0 nM
[2] = biological target: Bone morphogenetic protein receptor type-1B (Homo sapiens) (UniProt O00238); conditions: Compound concentration 100.0 nM
[3] = biological target: Protein-tyrosine kinase 6 (Homo sapiens) (UniProt Q13882); conditions: Compound concentration 100.0 nM
[4] = biological target: Calcium/calmodulin-dependent protein kinase type II subunit beta (Homo sapiens) (UniProt Q13554); conditions: Compound concentration 100.0 nM
[5] = biological target: Cyclin-dependent kinase 19 (Homo sapiens) (UniProt Q9BWU1); conditions: Compound concentration 100.0 nM
[6] = biological target: Dual specificity protein kinase CLK4 (Homo sapiens) (UniProt Q9HAZ1); conditions: Compound concentration 100.0 nM
[7] = biological target: Epidermal growth factor receptor (Homo sapiens) (UniProt P00533); conditions: Compound concentration 100.0 nM
[8] = test system: Epidermal growth factor receptor (Homo sapiens), P00533 [UNDEFINED MUTATION]; conditions: Compound concentration 100.0 nM
[9] = test system: Epidermal growth factor receptor (Homo sapiens), P00533 [UNDEFINED MUTATION]; conditions: Compound concentration 100.0 nM; remark: listed apart in the source
[10] = test system: Epidermal growth factor receptor (Homo sapiens), P00533 [T790M]; conditions: Compound concentration 100.0 nM
[11] = biological target: Ephrin type-A receptor 4 (Homo sapiens) (UniProt P54764); conditions: Compound concentration 100.0 nM
[12] = biological target: Ephrin type-B receptor 2 (Homo sapiens) (UniProt P29323); conditions: Compound concentration 100.0 nM
[13] = biological target: Ephrin type-B receptor 3 (Homo sapiens) (UniProt P54753); conditions: Compound concentration 100.0 nM
[14] = biological target: Receptor tyrosine-protein kinase erbB-4 (Homo sapiens) (UniProt Q15303); conditions: Compound concentration 100.0 nM
[15] = biological target: Focal adhesion kinase 1 (Homo sapiens) (UniProt Q05397); conditions: Compound concentration 100.0 nM
[16] = test system: Receptor-type tyrosine-protein kinase FLT3 (Homo sapiens), P36888 [D835H]; conditions: Compound concentration 100.0 nM
[17] = biological target: Insulin-like growth factor 1 receptor (Homo sapiens) (UniProt P08069); conditions: Compound concentration 100.0 nM
[18] = biological target: Inhibitor of nuclear factor kappa-B kinase subunit epsilon (Homo sapiens) (UniProt Q14164); conditions: Compound concentration 100.0 nM
[19] = test system: Leucine-rich repeat serine/threonine-protein kinase 2 (Homo sapiens), Q5S007 [G2019S]; conditions: Compound concentration 100.0 nM
[20] = biological target: Dual specificity mitogen-activated protein kinase kinase 4 (Homo sapiens) (UniProt P45985); conditions: Compound concentration 100.0 nM
[21] = biological target: Maternal embryonic leucine zipper kinase (Homo sapiens) (UniProt Q14680); conditions: Compound concentration 100.0 nM
[22] = biological target: Tyrosine-protein kinase Mer (Homo sapiens) (UniProt Q12866); conditions: Compound concentration 100.0 nM
[23] = biological target: Hepatocyte growth factor receptor (Homo sapiens) (UniProt P08581); conditions: Compound concentration 100.0 nM
[24] = biological target: Mitogen-activated protein kinase kinase kinase 9 (Homo sapiens) (UniProt P80192); conditions: Compound concentration 100.0 nM
[25] = biological target: Cyclin-dependent kinase 16 (Homo sapiens) (UniProt Q00536); conditions: Compound concentration 100.0 nM
[26] = biological target: Phosphatidylinositol 4-phosphate 3-kinase C2 domain-containing subunit beta (Homo sapiens) (UniProt O00750); conditions: Compound concentration 100.0 nM
[27] = biological target: Phosphatidylinositol 4,5-bisphosphate 3-kinase catalytic subunit gamma isoform (Homo sapiens) (UniProt P48736); conditions: Compound concentration 100.0 nM
[28] = biological target: RAF proto-oncogene serine/threonine-protein kinase (Homo sapiens) (UniProt P04049); conditions: Compound concentration 100.0 nM
[29] = test system: Proto-oncogene tyrosine-protein kinase receptor Ret (Homo sapiens), P07949 [M918T]; conditions: Compound concentration 100.0 nM
[30] = biological target: Ribosomal protein S6 kinase alpha-3 (Homo sapiens) (UniProt P51812); conditions: Compound concentration 100.0 nM
[31] = biological target: Ribosomal protein S6 kinase alpha-6 (Homo sapiens) (UniProt Q9UK32); conditions: Compound concentration 100.0 nM
[32] = biological target: Uncharacterized serine/threonine-protein kinase SBK3 (Homo sapiens) (UniProt P0C264); conditions: Compound concentration 100.0 nM
[33] = biological target: NUAK family SNF1-like kinase 2 (Homo sapiens) (UniProt Q9H093); conditions: Compound concentration 100.0 nM
[34] = biological target: SRSF protein kinase 3 (Homo sapiens) (UniProt Q9UPE1); conditions: Compound concentration 100.0 nM
[35] = biological target: Serine/threonine-protein kinase 36 (Homo sapiens) (UniProt Q9NRP7); conditions: Compound concentration 100.0 nM
[36] = biological target: Serine/threonine-protein kinase TAO1 (Homo sapiens) (UniProt Q7L7X3); conditions: Compound concentration 100.0 nM
[37] = biological target: Serine/threonine-protein kinase tousled-like 1 (Homo sapiens) (UniProt Q9UKI8); conditions: Compound concentration 100.0 nM
[38] = biological target: Serine/threonine-protein kinase ULK2 (Homo sapiens) (UniProt Q8IYT8); conditions: Compound concentration 100.0 nM
[39] = biological target: Serine/threonine-protein kinase WNK2 (Homo sapiens) (UniProt Q9Y3S1); conditions: Compound concentration 100.0 nM
[40] = biological target: Serine/threonine-protein kinase 32A (Homo sapiens) (UniProt Q8WU08); conditions: Compound concentration 100.0 nM
[41] = biological target: Tyrosine-protein kinase Yes (Homo sapiens) (UniProt P07947); conditions: Compound concentration 100.0 nM
[42] = biological target: 5-hydroxytryptamine receptor 2B (Homo sapiens) (UniProt P41595); conditions: Compound concentration 10.0 uM
[43] = biological target: Alpha-2B adrenergic receptor (Homo sapiens) (UniProt P18089); conditions: Compound concentration 10.0 uM
[44] = biological target: Beta-1 adrenergic receptor (Homo sapiens) (UniProt P08588); conditions: Compound concentration 10.0 uM
[45] = biological target: Beta-3 adrenergic receptor (Homo sapiens) (UniProt P13945); conditions: Compound concentration 10.0 uM

Chain of Ephrin type-A receptor 4 (Homo sapiens) (P54764 whole entry): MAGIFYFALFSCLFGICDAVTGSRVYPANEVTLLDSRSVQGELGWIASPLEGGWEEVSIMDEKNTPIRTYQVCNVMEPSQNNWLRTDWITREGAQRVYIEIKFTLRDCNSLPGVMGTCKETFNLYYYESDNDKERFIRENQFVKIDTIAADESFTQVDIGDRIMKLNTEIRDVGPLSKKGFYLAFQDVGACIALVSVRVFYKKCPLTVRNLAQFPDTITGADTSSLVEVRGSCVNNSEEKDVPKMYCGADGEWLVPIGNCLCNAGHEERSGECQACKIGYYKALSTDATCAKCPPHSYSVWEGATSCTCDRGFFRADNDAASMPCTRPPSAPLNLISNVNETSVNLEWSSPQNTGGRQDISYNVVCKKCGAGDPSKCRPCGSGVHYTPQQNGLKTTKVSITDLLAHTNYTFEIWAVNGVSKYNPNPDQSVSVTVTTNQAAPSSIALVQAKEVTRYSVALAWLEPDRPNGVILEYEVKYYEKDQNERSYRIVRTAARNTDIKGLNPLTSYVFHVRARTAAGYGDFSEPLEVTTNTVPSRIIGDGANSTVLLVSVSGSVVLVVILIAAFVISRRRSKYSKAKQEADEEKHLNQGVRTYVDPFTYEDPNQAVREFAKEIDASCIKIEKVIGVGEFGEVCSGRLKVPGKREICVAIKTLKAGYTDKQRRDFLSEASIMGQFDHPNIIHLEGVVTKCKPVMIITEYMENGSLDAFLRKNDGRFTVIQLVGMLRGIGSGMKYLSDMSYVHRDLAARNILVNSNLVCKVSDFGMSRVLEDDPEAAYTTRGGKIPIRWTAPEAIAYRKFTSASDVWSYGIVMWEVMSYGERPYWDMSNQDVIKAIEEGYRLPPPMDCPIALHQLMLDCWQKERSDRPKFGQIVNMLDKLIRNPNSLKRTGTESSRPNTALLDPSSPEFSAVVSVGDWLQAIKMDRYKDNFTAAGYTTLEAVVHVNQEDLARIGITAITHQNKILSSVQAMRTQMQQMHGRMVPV
Chain of Phosphatidylinositol 4-phosphate 3-kinase C2 domain-containing subunit beta (Homo sapiens) (O00750 whole entry, the tested form may be a part, canonical isoform): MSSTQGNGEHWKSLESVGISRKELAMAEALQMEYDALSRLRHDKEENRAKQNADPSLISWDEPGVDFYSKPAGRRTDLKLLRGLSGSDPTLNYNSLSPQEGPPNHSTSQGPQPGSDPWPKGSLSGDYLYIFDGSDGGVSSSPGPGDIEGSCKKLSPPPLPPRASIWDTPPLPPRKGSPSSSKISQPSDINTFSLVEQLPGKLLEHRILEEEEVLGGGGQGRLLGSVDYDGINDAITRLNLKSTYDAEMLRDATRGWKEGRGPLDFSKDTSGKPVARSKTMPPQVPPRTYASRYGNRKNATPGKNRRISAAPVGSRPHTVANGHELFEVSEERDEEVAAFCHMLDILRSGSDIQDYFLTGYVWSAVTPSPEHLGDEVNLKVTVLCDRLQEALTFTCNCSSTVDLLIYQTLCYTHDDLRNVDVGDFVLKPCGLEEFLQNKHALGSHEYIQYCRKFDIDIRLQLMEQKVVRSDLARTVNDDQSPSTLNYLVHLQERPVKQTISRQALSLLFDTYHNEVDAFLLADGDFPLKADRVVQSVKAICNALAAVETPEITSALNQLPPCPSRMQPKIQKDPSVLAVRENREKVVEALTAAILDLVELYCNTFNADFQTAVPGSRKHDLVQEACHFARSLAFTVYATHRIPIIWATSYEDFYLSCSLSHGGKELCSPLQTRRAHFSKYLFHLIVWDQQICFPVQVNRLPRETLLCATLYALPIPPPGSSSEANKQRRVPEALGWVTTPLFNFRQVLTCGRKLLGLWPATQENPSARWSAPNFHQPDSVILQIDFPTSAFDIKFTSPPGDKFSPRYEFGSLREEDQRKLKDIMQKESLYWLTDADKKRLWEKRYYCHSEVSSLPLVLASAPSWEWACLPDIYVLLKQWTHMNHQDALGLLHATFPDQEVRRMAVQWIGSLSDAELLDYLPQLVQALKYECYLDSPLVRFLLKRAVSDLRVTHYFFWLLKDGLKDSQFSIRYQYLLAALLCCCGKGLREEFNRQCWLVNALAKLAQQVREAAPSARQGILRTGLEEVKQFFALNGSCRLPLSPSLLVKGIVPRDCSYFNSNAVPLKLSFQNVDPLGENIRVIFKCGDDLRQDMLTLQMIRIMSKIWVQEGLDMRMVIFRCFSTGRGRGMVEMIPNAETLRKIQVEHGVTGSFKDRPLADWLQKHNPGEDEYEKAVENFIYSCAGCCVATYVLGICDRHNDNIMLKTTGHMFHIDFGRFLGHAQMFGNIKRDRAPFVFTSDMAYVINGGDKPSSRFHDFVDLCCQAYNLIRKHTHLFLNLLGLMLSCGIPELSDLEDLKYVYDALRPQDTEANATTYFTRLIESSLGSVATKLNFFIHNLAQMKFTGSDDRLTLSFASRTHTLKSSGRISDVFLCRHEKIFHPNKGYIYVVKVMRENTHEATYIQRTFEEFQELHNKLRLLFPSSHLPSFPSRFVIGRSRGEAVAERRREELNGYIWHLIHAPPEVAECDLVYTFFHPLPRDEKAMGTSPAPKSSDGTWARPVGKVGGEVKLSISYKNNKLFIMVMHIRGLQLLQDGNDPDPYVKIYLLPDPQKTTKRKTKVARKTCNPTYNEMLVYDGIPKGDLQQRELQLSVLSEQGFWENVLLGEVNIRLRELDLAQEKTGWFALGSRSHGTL
Chain of Hepatocyte growth factor receptor (Homo sapiens) (P08581 whole entry): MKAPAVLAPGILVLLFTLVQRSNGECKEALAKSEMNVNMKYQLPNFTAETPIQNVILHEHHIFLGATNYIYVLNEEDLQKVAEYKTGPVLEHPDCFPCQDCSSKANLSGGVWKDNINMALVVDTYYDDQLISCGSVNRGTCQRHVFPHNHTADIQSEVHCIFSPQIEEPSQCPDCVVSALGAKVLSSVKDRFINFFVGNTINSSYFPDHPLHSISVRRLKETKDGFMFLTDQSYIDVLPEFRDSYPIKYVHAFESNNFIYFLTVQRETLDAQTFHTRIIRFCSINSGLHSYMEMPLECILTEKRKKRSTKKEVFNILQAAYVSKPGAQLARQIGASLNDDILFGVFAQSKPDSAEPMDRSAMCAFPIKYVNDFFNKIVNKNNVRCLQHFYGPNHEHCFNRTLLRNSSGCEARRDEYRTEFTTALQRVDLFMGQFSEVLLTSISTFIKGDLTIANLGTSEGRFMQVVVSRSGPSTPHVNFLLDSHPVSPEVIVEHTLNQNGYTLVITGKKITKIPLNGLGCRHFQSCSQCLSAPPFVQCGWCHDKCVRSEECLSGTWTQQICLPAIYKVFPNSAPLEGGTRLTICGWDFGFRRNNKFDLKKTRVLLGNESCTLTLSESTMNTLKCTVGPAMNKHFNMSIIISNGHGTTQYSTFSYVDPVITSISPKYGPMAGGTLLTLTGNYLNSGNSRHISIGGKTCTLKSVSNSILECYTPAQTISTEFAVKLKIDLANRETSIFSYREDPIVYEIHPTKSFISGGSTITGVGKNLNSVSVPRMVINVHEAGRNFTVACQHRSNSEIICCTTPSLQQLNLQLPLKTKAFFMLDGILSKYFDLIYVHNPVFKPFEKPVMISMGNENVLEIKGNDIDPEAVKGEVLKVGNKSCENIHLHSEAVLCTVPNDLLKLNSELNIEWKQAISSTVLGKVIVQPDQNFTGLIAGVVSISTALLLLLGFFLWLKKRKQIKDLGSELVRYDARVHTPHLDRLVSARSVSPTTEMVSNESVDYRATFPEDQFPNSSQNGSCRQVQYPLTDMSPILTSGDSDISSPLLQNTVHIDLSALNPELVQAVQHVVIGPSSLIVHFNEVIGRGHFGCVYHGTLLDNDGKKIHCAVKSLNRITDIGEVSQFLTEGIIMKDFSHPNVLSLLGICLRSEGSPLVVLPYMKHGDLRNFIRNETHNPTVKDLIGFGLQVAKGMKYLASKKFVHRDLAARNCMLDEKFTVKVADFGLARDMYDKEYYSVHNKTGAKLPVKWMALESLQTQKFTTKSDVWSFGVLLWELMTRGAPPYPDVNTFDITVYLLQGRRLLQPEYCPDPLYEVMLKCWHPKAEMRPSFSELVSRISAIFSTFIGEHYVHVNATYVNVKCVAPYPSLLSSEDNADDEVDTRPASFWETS
Chain of Mitogen-activated protein kinase kinase kinase 9 (Homo sapiens) (P80192 whole entry, looked up): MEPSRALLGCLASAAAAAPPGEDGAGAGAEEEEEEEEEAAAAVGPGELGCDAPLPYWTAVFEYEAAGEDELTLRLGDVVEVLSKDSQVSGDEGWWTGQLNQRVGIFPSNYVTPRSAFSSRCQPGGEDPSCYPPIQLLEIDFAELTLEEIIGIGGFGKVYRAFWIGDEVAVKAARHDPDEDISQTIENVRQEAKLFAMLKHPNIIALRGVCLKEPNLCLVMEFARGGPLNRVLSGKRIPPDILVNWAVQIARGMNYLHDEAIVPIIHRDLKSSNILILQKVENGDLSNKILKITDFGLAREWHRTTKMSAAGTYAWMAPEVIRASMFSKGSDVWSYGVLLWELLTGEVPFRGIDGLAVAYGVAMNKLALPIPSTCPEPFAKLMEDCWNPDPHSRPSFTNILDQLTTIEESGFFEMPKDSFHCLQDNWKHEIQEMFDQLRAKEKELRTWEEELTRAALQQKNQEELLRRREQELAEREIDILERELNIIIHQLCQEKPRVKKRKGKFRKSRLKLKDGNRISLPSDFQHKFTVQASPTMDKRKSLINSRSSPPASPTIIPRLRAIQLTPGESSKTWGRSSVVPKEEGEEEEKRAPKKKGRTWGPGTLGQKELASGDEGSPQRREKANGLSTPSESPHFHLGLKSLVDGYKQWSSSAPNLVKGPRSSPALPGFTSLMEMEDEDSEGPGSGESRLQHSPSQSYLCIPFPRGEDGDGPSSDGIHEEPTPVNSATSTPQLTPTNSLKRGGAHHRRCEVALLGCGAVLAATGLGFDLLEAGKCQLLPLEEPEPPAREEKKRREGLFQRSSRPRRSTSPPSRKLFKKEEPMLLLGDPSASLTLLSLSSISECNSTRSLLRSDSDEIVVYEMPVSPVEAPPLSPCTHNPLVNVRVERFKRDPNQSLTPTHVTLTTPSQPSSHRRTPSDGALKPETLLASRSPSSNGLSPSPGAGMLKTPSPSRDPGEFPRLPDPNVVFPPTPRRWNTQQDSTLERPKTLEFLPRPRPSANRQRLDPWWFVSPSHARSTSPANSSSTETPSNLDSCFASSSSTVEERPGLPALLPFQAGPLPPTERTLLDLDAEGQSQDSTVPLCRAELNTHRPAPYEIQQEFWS

O=C(NCCCC1CCCCC1)c1ccc(CNC(=O)c2cnn(-c3ccccc3)c2C(F)(F)F)cc1 [SR-321]
inactive: residual activity [1] 96% | residual activity [2] 92% | residual activity [3] 97% | residual activity [4] 96% | residual activity [5] 96% | residual activity [6] 100% | residual activity [7] 100% | residual activity [8] 100% | residual activity [9] 99% | residual activity [10] 97% | residual activity [11] 70% | residual activity [12] 100% | residual activity [13] 79% | residual activity [14] 100% | residual activity [15] 100% | residual activity [16] 100% | residual activity [17] 100% | residual activity [18] 78% | residual activity [19] 100% | residual activity [20] 100% | residual activity [21] 80% | residual activity [22] 100% | residual activity [23] 100% | residual activity [24] 100% | residual activity [25] 100% | residual activity [26] 86% | residual activity [27] 95% | residual activity [28] 99% | residual activity [29] 100% | residual activity [30] 100% | residual activity [31] 100% | residual activity [32] 100% | residual activity [33] 100% | residual activity [34] 100% | residual activity [35] 100% | residual activity [36] 96% | residual activity [37] 100% | residual activity [38] 100% | residual activity [39] 100% | residual activity [40] 76% | residual activity [41] 100% | inhibition [42] 3.69% | inhibition [43] 1.13% | inhibition [44] 21.9% | inhibition [45] 21.7%

Nc1c(C(=O)NCc2ccc(C(=O)NCCCC3CCCCC3)cc2)cnn1-c1ccccc1 [SR-318]
inactive: residual activity [1] 100% | residual activity [2] 100% | residual activity [3] 96% | residual activity [4] 100% | residual activity [5] 99% | residual activity [6] 96% | residual activity [7] 99% | residual activity [8] 84% | residual activity [9] 100% | residual activity [10] 100% | residual activity [11] 100% | residual activity [12] 100% | residual activity [13] 96% | residual activity [14] 89% | residual activity [15] 99% | residual activity [16] 100% | residual activity [17] 98% | residual activity [18] 100% | residual activity [19] 100% | residual activity [20] 100% | residual activity [21] 92% | residual activity [22] 100% | residual activity [23] 95% | residual activity [24] 96% | residual activity [25] 97% | residual activity [26] 99% | residual activity [27] 100% | residual activity [28] 100% | residual activity [29] 100% | residual activity [30] 100% | residual activity [31] 100% | residual activity [32] 87% | residual activity [33] 100% | residual activity [34] 100% | residual activity [35] 100% | residual activity [36] 91% | residual activity [37] 77% | residual activity [38] 100% | residual activity [39] 100% | residual activity [40] 96% | residual activity [41] 100% | inhibition [42] 19.9% | inhibition [43] 17.7% | inhibition [44] 25.3% | inhibition [45] 21.8%
